From PubChem BioAssay (NCI)
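Grown in 96-well plates, cells were treated for 48 hours with each compound at five concentrations. Insufficient inhibition: endpoint recorded as highest concentration tested. GI50 = concentration required for 50% inhibition of growth. TGI denotes the concentration required for complete inhibition of growth.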

Assays:
Experiment in all cases: DTP human tumour cell line panel, 48 h
NCI-H23 lung = test system: NCI-H23 lung
IGROV1 ovarian = test system: IGROV1 ovarian
RXF 393 renal = test system: RXF 393 renal
786-0 renal = test system: 786-0 renal
SK-MEL-28 melanoma = test system: SK-MEL-28 melanoma
SR leukemia = test system: SR leukemia
NCI-H226 lung = test system: NCI-H226 lung
SN12C renal = test system: SN12C renal
HCT-15 colon = test system: HCT-15 colon
NCI-H460 lung = test system: NCI-H460 lung
OVCAR-4 ovarian = test system: OVCAR-4 ovarian
EKVX NSCLC = test system: EKVX NSCLC
OVCAR-8 ovarian = test system: OVCAR-8 ovarian
CCRF-CEM leukemia = test system: CCRF-CEM leukemia
OVCAR-5 ovarian = test system: OVCAR-5 ovarian
SF-295 CNS = test system: SF-295 CNS
LOX IMVI melanoma = test system: LOX IMVI melanoma
COLO 205 colon = test system: COLO 205 colon
CAKI-1 renal = test system: CAKI-1 renal
U251 CNS = test system: U251 CNS
UACC-62 melanoma = test system: UACC-62 melanoma
BT-549 breast = test system: BT-549 breast
HCT-116 colon = test system: HCT-116 colon
SNB-75 CNS = test system: SNB-75 CNS
SK-MEL-2 melanoma = test system: SK-MEL-2 melanoma
DU-145 prostate = test system: DU-145 prostate
SNB-19 CNS = test system: SNB-19 CNS
T-47D breast = test system: T-47D breast
MCF7 breast = test system: MCF7 breast
MOLT-4 leukemia = test system: MOLT-4 leukemia
SK-MEL-5 melanoma = test system: SK-MEL-5 melanoma
SK-OV-3 ovarian = test system: SK-OV-3 ovarian
UO-31 renal = test system: UO-31 renal
PC-3 prostate = test system: PC-3 prostate
NCI/ADR-RES ovarian = test system: NCI/ADR-RES ovarian
RPMI-8226 leukemia = test system: RPMI-8226 leukemia
UACC-257 melanoma = test system: UACC-257 melanoma
A498 renal = test system: A498 renal
MDA-MB-231 breast = test system: MDA-MB-231 breast
K-562 leukemia = test system: K-562 leukemia
MDA-MB-435 = test system: MDA-MB-435
HL-60(TB) leukemia = test system: HL-60(TB) leukemia
HOP-92 NSCLC = test system: HOP-92 NSCLC
HCC-2998 colon = test system: HCC-2998 colon
A549 NSCLC = test system: A549 NSCLC
HT29 colon = test system: HT29 colon
TK-10 renal = test system: TK-10 renal
SW-620 colon = test system: SW-620 colon
KM12 colon = test system: KM12 colon
SF-268 CNS = test system: SF-268 CNS
NCI-H522 lung = test system: NCI-H522 lung
SF-539 CNS = test system: SF-539 CNS
ACHN renal = test system: ACHN renal
MALME-3M melanoma = test system: MALME-3M melanoma
M14 melanoma = test system: M14 melanoma
HS 578T breast = test system: HS 578T breast
HOP-62 NSCLC = test system: HOP-62 NSCLC

## CCN1CCN(c2ccc(NC(=O)Nc3ccc4c(ccn4-c4ccnc(C(=O)NC)c4)c3)cc2C(F)(F)F)CC1
NCI-H23 lung
  GI50: 2.08 µM
  TGI: 4.23 µM
IGROV1 ovarian
  GI50: 2.67 µM
  TGI: 5.61 µM
RXF 393 renal
  GI50: 1.42 µM
  TGI: 3.58 µM
786-0 renal
  GI50: 1.73 µM
  TGI: 3.63 µM
SK-MEL-28 melanoma
  GI50: 2.28 µM
  TGI: 4.37 µM
SR leukemia
  GI50: 0.644 µM
  TGI: 3.22 µM
NCI-H226 lung
  GI50: > 14.3 µM
  TGI: > 14.3 µM
SN12C renal
  GI50: > 14.3 µM
  TGI: > 14.3 µM
HCT-15 colon
  GI50: 1.04 µM
  TGI: 3.35 µM
NCI-H460 lung
  GI50: 2.59 µM
  TGI: 5.03 µM
OVCAR-4 ovarian
  GI50: 2.65 µM
  TGI: 5.86 µM
EKVX NSCLC
  GI50: 2.27 µM
  TGI: 4.47 µM
OVCAR-8 ovarian
  GI50: 2.62 µM
  TGI: 5.49 µM
CCRF-CEM leukemia
  GI50: 3.77 µM
  TGI: > 14.3 µM
OVCAR-5 ovarian
  GI50: 11.4 µM
  TGI: > 14.3 µM
SF-295 CNS
  GI50: 0.925 µM
  TGI: 2.85 µM
LOX IMVI melanoma
  GI50: 2.21 µM
  TGI: 4.22 µM
COLO 205 colon
  GI50: > 14.3 µM
  TGI: > 14.3 µM
CAKI-1 renal
  GI50: 2.68 µM
  TGI: 5.07 µM
U251 CNS
  GI50: 1.64 µM
  TGI: 3.53 µM
UACC-62 melanoma
  GI50: 2.34 µM
  TGI: 4.55 µM
BT-549 breast
  GI50: > 14.3 µM
  TGI: > 14.3 µM
HCT-116 colon
  GI50: 2 µM
  TGI: 3.88 µM
SNB-75 CNS
  GI50: 5.22 µM
  TGI: > 14.3 µM
SK-MEL-2 melanoma
  GI50: 12.6 µM
  TGI: > 14.3 µM
DU-145 prostate
  GI50: 2.59 µM
  TGI: 4.88 µM
SNB-19 CNS
  GI50: 2.36 µM
  TGI: 4.81 µM
T-47D breast
  GI50: > 14.3 µM
  TGI: > 14.3 µM
MCF7 breast
  GI50: 2.15 µM
  TGI: 5.05 µM
MOLT-4 leukemia
  GI50: 1.79 µM
  TGI: 9.46 µM
SK-MEL-5 melanoma
  GI50: 2.52 µM
  TGI: 4.56 µM
SK-OV-3 ovarian
  GI50: > 14.3 µM
  TGI: > 14.3 µM
UO-31 renal
  GI50: 2.23 µM
  TGI: 4.21 µM
PC-3 prostate
  GI50: 2.34 µM
  TGI: 7.38 µM
NCI/ADR-RES ovarian
  GI50: 3.08 µM
  TGI: 7.44 µM
RPMI-8226 leukemia
  GI50: 1.57 µM
  TGI: > 14.3 µM
UACC-257 melanoma
  GI50: 2.45 µM
  TGI: 4.68 µM
A498 renal
  GI50: 13.5 µM
  TGI: > 14.3 µM
MDA-MB-231 breast
  GI50: 2.53 µM
  TGI: 5.01 µM
K-562 leukemia
  GI50: 0.793 µM
  TGI: 4.14 µM
MDA-MB-435
  GI50: 2.46 µM
  TGI: 4.56 µM
HL-60(TB) leukemia
  GI50: 2.66 µM
  TGI: 6.11 µM
HOP-92 NSCLC
  GI50: 1.55 µM
  TGI: 3.44 µM
HCC-2998 colon
  GI50: 2.47 µM
  TGI: 4.54 µM
A549 NSCLC
  GI50: 2.28 µM
  TGI: 4.5 µM
HT29 colon
  GI50: 1.07 µM
  TGI: 3.22 µM
TK-10 renal
  GI50: 2.68 µM
  TGI: 4.82 µM
SW-620 colon
  GI50: 2.5 µM
  TGI: 4.79 µM
KM12 colon
  GI50: 0.741 µM
  TGI: 2.85 µM
SF-268 CNS
  GI50: 2.53 µM
  TGI: 5.66 µM
NCI-H522 lung
  GI50: > 14.3 µM
  TGI: > 14.3 µM
SF-539 CNS
  GI50: 1.63 µM
  TGI: 3.48 µM
ACHN renal
  GI50: 2.56 µM
  TGI: 4.55 µM
MALME-3M melanoma
  GI50: 2.07 µM
  TGI: 4.22 µM
M14 melanoma
  GI50: 2.35 µM
  TGI: 4.36 µM
HS 578T breast
  GI50: 2.5 µM
  TGI: 13.7 µM
HOP-62 NSCLC
  GI50: 2.13 µM
  TGI: 4.3 µM
